Experimental findings from ChEMBL document CHEMBL5365500, “Development and Antibacterial Properties of 4-[4-(Anilinomethyl)-3-phenylpyrazol-1-yl]benzoic Acid Derivatives as Fatty Acid Biosynthesis Inhibitors” (J Med Chem, 2023) are described below.

Values after ≈ are worked out from the molar mass of the structure shown. Active and inactive are the calls of the source. The calls are words filed in the database; no cut-off is given here.

The test system of data set [1] is Staphylococcus aureus. In words: Antimicrobial activity against Staphylococcus aureus UAB159 assessed as inhibition of growth measured after 20 to 24 hrs incubation by CLSI method. It is filed as functional. Conditions: time 20-24 hrs.
Data set [2] deals with Staphylococcus aureus. In words: Antimicrobial activity against clinical isolate Staphylococcus aureus Smu21 assessed as inhibition of growth measured after 20 to 24 hrs incubation by CLSI method. The class given is functional. Conditions: time 20-24 hrs.
Data set [3] has as its system Staphylococcus aureus. In words: Antimicrobial activity against clinical isolate Staphylococcus aureus Smu109 assessed as inhibition of growth measured after 20 to 24 hrs incubation by CLSI method. It is filed as functional. Particulars: time 20-24 hrs.
Data set [4] has as its system Staphylococcus aureus. The experiment in a line: In vivo antimicrobial activity against Staphylococcus aureus Newman infected in Caenorhabditis elegans AU37 nematodes assessed as viability of nematodes incubated for 5 days by susceptibility test. It is filed as functional. Conditions: 120 h, time 5 day.
Data set [5] concerns Erythrocyte. In words: Hemolytic activity in sheep red blood cells assessed as hemolysis at 64 ug/ml incubated for 30 mins relative to control. The class given is toxicity, cell-based, Ovis aries. Particulars: 0.5 h, at 64 µg/mL.
The subject of data set [6] is Staphylococcus aureus. The experiment in a line: Antimicrobial activity against Staphylococcus aureus ATCC 25923 assessed as inhibition of visible growth measured after 20 to 24 hrs incubation by CLSI method. Particulars: time 20-24 hrs. It is filed as functional.
The subject of data set [7] is Enterococcus faecalis. In words: Antimicrobial activity against Enterococcus faecalis ATCC 29212 assessed as inhibition of biofilm formation by measuring prevention of turbidity after 24 hrs incubation by Real-time monitoring method. The class given is functional.
In data set [8] the test system is Cell membrane. In words: Induction of membrane permeability in Staphylococcus aureus ATCC 700699 assessed as increase in fluorescence at 8 times of MIC incubated for 15 mins measured for 1 hr by propidium iodide/real time fluorescence based flow cytometry. The class given is subcellular.
The test system of data set [9] is Staphylococcus aureus. In words: Antimicrobial activity against methicilline-resistant Staphylococcus aureus ATCC 700699 persisters assessed as bacterial killing at 32 time of MIC concentration measured for every 2 hrs upto 8 hrs by Persisters time course assay. It is filed as functional, organism-based.
Data set [10] deals with Cell membrane. In words: Induction of membrane permeability in Staphylococcus aureus ATCC 700699 assessed as increase in fluorescence at 0.5 to 2 times of MIC incubated for 15 mins measured for 1 hr by propidium iodide/real time fluorescence based flow cytometry. Particulars: time 75.0 min. It is filed as subcellular.
Data set [11] deals with Staphylococcus aureus. The experiment in a line: Bactericidal activity in antibiotic-resistant Staphylococcus aureus ATCC 700699 assessed as reduction in viable cell count at 4 times of MIC measured upto 24 hrs by time kill assay. The class given is functional, organism-based.
For data set [12], the system named is Staphylococcus aureus. The experiment in a line: In vivo antimicrobial activity against Staphylococcus aureus USA300 infected in Caenorhabditis elegans AU37 nematodes assessed as viability of nematodes incubated for 5 days by susceptibility test. It is filed as functional. Conditions: USA300, 120 h, time 5 day.
Data set [13] relates to Enterococcus faecalis. In words: Antimicrobial activity against antibiotic-susceptible Enterococcus faecalis ATCC 29212 assessed as eradication of biofilm measured after 24 hrs incubation by Calgary method. It is filed as functional.
In data set [14] the test system is Staphylococcus aureus. In words: Antimicrobial activity against methicilline-resistant Staphylococcus aureus ATCC 700699 persisters assessed as reduction in initial persister concentration at 8 times of MIC concentration measured for 8 hrs by Persisters time course assay. It is filed as functional.
Data set [15] relates to Staphylococcus aureus. In words: Antimicrobial activity against antibiotic-resistant Staphylococcus aureus ATCC BAA-2312 assessed as inhibition of visible growth measured after 20 to 24 hrs incubation by CLSI method. It is filed as functional. Particulars: time 20-24 hrs.
Data set [16] deals with Staphylococcus aureus. In words: Antimicrobial activity against clinical isolate Staphylococcus aureus Smu57 assessed as inhibition of growth measured after 20 to 24 hrs incubation by CLSI method. It is filed as functional. Particulars: time 20-24 hrs.
The subject of data set [17] is Staphylococcus aureus. In words: Antimicrobial activity against clinical isolate Staphylococcus aureus Smu9 assessed as inhibition of growth measured after 20 to 24 hrs incubation by CLSI method. The class given is functional. Conditions: time 20-24 hrs.
The test system of another data set is Bacillus subtilis. In words: Antimicrobial activity against antibiotic-resistant Bacillus subtilis ATCC 6623 assessed as inhibition of visible growth measured after 20 to 24 hrs incubation by CLSI method. It is filed as functional. Conditions: time 20-24 hrs.
Data set [18] has as its system Staphylococcus aureus. The experiment in a line: Antimicrobial activity against antibiotic-resistant Staphylococcus aureus ATCC 33592 assessed as inhibition of visible growth measured after 20 to 24 hrs incubation by CLSI method. The class given is functional. Conditions: time 20-24 hrs.
For data set [19], the system named is Staphylococcus aureus. In words: Antimicrobial activity against methicilline-resistant Staphylococcus aureus ATCC 700699 persisters assessed as reduction in initial persister concentration at 2 times of MIC concentration measured for 2 to 8 hrs by Persisters time course assay. Conditions: time 2-8 hrs. It is filed as functional, organism-based.
Data set [20] deals with Staphylococcus aureus. The experiment in a line: Resistance development in methicillin-sensitive Staphylococcus aureus ATCC 25923 assessed as fold increase in MIC at 0.5 times of MIC measured at 4 to 6 th passages by multistep resistance assay. It is filed as functional.
For data set [21], the system named is Staphylococcus aureus. In words: Antimicrobial activity against Staphylococcus aureus ATCC 25923 assessed as inhibition of biofilm formation by measuring prevention of turbidity after 24 hrs incubation by Real-time monitoring method. The class given is functional.
In data set [22] the test system is Erythrocyte. The experiment in a line: Hemolytic activity in sheep red blood cells assessed as hemolysis at 16 to 32 ug/ml incubated for 30 mins relative to control. Conditions: 0.5 h, dose 16-32 µg/ml. The class given is toxicity, cell-based, Ovis aries.
For data set [23], the system named is Panel NCI-60 (60 carcinoma cell lines). In words: Cytotoxicity against human panel NCI-60 (60 carcinoma cell lines)cells assessed as cell viability at 10 uM measured after 24 hrs by resazurin assay. It is filed as functional, cell-based.
For data set [24], the system named is Staphylococcus aureus. In words: In vivo antimicrobial activity against Staphylococcus aureus UAMS-1 infected in Caenorhabditis elegans AU37 nematodes assessed as viability of nematodes incubated for 5 days by susceptibility test. Conditions: UAMS-1, 120 h, time 5 day. It is filed as functional.
Data set [25] has as its system Staphylococcus aureus. The experiment in a line: Antimicrobial activity against methicilline-resistant Staphylococcus aureus ATCC 700699 persisters assessed as reduction in initial persister concentration at 16 times of MIC concentration measured for 2 hrs by Persisters time course assay. It is filed as functional, organism-based.
Data set [26] concerns Staphylococcus aureus. In words: Antimicrobial activity against clinical isolate Staphylococcus aureus Smu81 assessed as inhibition of growth measured after 20 to 24 hrs incubation by CLSI method. It is filed as functional. Conditions: time 20-24 hrs.
Data set [27] deals with Staphylococcus aureus. In words: Antimicrobial activity against antibiotic-resistant Staphylococcus aureus ATCC 33591 assessed as inhibition of visible growth measured after 20 to 24 hrs incubation by CLSI method. Particulars: time 20-24 hrs. The class given is functional.
The subject of data set [28] is Enterococcus faecium. The experiment in a line: Antimicrobial activity against Enterococcus faecium […] assessed as inhibition of biofilm formation after 24 hrs incubation by Real-time monitoring method. It is filed as functional.
Data set [29] has as its system Enterococcus faecalis. The experiment in a line: Antimicrobial activity against antibiotic-susceptible Enterococcus faecalis ATCC 29212 assessed as inhibition of biofilm formation by measuring prevention of turbidity after 24 hrs incubation by Real-time monitoring method. It is filed as functional.
Data set [30] concerns Staphylococcus aureus. In words: Antimicrobial activity against antibiotic-susceptible Staphylococcus aureus ATCC 25923 assessed as inhibition of biofilm formation by measuring prevention of turbidity after 24 hrs incubation by Real-time monitoring method. It is filed as functional.
In data set [31] the test system is Staphylococcus aureus. In words: Antimicrobial activity against Staphylococcus aureus ATCC 25923 assessed as eradication of biofilm measured after 24 hrs incubation by Calgary method. The class given is functional.
Data set [32] has as its system Enterococcus faecalis. In words: Antimicrobial activity against antibiotic-resistant Enterococcus faecalis ATCC 51299 assessed as inhibition of visible growth measured after 20 to 24 hrs incubation by CLSI method. The class given is functional. Conditions: time 20-24 hrs.
In data set [33] the test system is Enterococcus faecium. The experiment in a line: Antimicrobial activity against antibiotic-resistant Enterococcus faecium ATCC 700221 assessed as inhibition of visible growth measured after 20 to 24 hrs incubation by CLSI method. It is filed as functional. Particulars: time 20-24 hrs.
Data set [34] relates to Staphylococcus aureus. In words: Antimicrobial activity against antibiotic-susceptible Staphylococcus aureus ATCC 25923 assessed as inhibition of biofilm formation after 24 hrs incubation by Real-time monitoring method. It is filed as functional.
In data set [35] the test system is Staphylococcus aureus. The experiment in a line: Antimicrobial activity against antibiotic-susceptible Staphylococcus aureus ATCC 25923 assessed as inhibition of biofilm formation on plastic coverslips at 0.5 times of MIC measured after 24 hrs by electron microscopy. It is filed as functional, organism-based.

Regarding `O=C(O)c1ccc(-n2cc(CNc3ccc(Br)c(C(F)(F)F)c3)c(-c3cccc(F)c3)n2)cc1`, the MIC in the data set with Staphylococcus aureus [1] is 4 µg/mL (≈ 7.49 µM); in the data set with Staphylococcus aureus [2] it was 4 µg/mL (≈ 7.49 µM); in the data set with Staphylococcus aureus [3], 2 µg/mL (≈ 3.74 µM); in the data set with Staphylococcus aureus [4], 1 µg/mL (≈ 1.87 µM); in the data set on Staphylococcus aureus [6], 1 µg/mL (≈ 1.87 µM); with Enterococcus faecalis [7], 8 µg/mL (≈ 15 µM). Moreover, the MIC was 1 µg/mL (≈ 1.87 µM) in the data set with Staphylococcus aureus [12]; 1 µg/mL (≈ 1.87 µM) in the data set on Staphylococcus aureus [15]; 2 µg/mL (≈ 3.74 µM) in the data set on Staphylococcus aureus [16]; 4 µg/mL (≈ 7.49 µM) with Staphylococcus aureus [17]; 0.5 µg/mL (≈ 0.936 µM) in the data set on Bacillus subtilis; 0.5 µg/mL (≈ 0.936 µM) in the data set on Staphylococcus aureus [18]. The MIC with Staphylococcus aureus [21] worked out at 2 µg/mL (≈ 3.74 µM); in the data set on Staphylococcus aureus [24], 1 µg/mL (≈ 1.87 µM); in the data set with Staphylococcus aureus [26], 4 µg/mL (≈ 7.49 µM); in the data set with Staphylococcus aureus [27], 0.5 µg/mL (≈ 0.936 µM). Also, the Activity is recorded as less than 10% in the data set with Erythrocyte [5] and “Non-Toxic” in the data set on Erythrocyte [22]. Also, the outcome (in the data set with Cell membrane [8]; in the data set on Cell membrane [10]; with Staphylococcus aureus [19]; in data set [23]) was inactive. The result in the data set on Staphylococcus aureus [9], in the data set with Staphylococcus aureus [11] and in the data set on Staphylococcus aureus [25] was Active. Moreover, in the data set with Enterococcus faecalis [13], the MBEC was 2 µg/mL. Also, the “log(activity)” value in the data set on Staphylococcus aureus [14] is reported as 6. Further, the “fold change (FC)” value in the data set with Staphylococcus aureus [20] came out at 2. In addition, the MBIC with Enterococcus faecium [28] is 8 µg/mL.
With `CN[C@H](CC(C)C)C(=O)N[C@H]1C(=O)N[C@@H](CC(N)=O)C(=O)N[C@H]2C(=O)N[C@H]3C(=O)N[C@H](C(=O)N[C@H](C(=O)O)c4cc(O)cc(O)c4-c4cc3ccc4O)[C@H](O)c3ccc(c(Cl)c3)Oc3cc2cc(c3O[C@@H]2O[C@H](CO)[C@@H](O)[C@H](O)[C@H]2O[C@H]2C[C@](C)(N)[C@H](O)[C@H](C)O2)Oc2ccc(cc2Cl)[C@H]1O` [VANCOMYCIN], the MBBC in the data set with Enterococcus faecalis [29] and in the data set with Staphylococcus aureus [30] was more than 16 µg/mL in each case. Also, the MIC in the data set on Bacillus subtilis was 0.25 µg/mL (≈ 0.173 µM); with Enterococcus faecalis [32], more than 32 µg/mL; with Staphylococcus aureus [21], 8 µg/mL (≈ 5.52 µM); with Enterococcus faecium [33], more than 32 µg/mL. Further, in the data set on Staphylococcus aureus [31], the MBEC is more than 32 µg/mL. Also, the MBIC with Staphylococcus aureus [34] and in the data set on Enterococcus faecium [28] was more than 16 µg/mL throughout. In addition, the outcome in the data set with Staphylococcus aureus [35] was Active.
